For experiment [1], the target named is T1, human cytochrome P450 (CYP) 2C9 (Homo sapiens, UniProt P11712).
T1 construct: made in house; host or cells: yeast (microsomal fraction)
As to the kind of experiment: Cytochrome P450 Inhibition Assay, CYP 2C9. The format is in vitro ADME. The note with it: test compound 0.1-10 μM, substrate MFC. The method, then:
Cytochrome P450 Inhibition Assay
Microsomal subcellular fractions prepared from Yeast cell lines expressing each human CYP isoform were used as an enzyme source in this assay. The activity of the 5 major human CYPs was determined from the biotransformation of a number of coumarin substrates to fluorescent metabolites, in the presence of NADPH. […] Stock solutions of each CYP, with its respective substrate, were prepared in phosphate buffer pH 7.4 (see Table 1) and 178 μl was added to the well of a black solid, flat bottom, 300 μl 96 well microtitre plate (Corning Costar). […] After pre-incubating at 37° C. for 5 min the reactions were started with addition of NADPH (20 μl, concentration shown in Table 1). The final solvent content in each incubation was <=2% (1% from the test compound and a maximum of 1% from the substrate). The appropriate solvent controls and substrate blanks were included in each experiment to assess control activity and identify any inherent fluorescence due to the test compounds. In addition, known inhibitors of each CYP were included as positive controls (see Table 3 for inhibitor concentrations and expected IC50 ranges). […] The plates were read on a fluorimeter (Spectrafluor Plus) at the appropriate excitation and emission wavelengths (listed in Table 2) and the percent activity, corrected for control, was plotted against the test compound concentration.

The next experiment addresses T2, FGFR1 IIIc (Homo sapiens, UniProt P11362).
T2 construct: expressed in transfected cells; host or cells: Cos-1
Description: Cell FGFR1 (ECHO): inhibition of transiently expressed FGFR1 IIIc phosphorylation in Cos-1 cells. To be noted: Cos-1 cells transiently expressing FGFR1 IIIc, 1 hour incubation; read-out: IC50 (inhibition of phosphorylated FGFR1). The format is cell-based. The source says:
Cell FGFR1 (ECHO)—Cell Based Inhibition of Transiently Expressed FGFR1 IIIc Phosphorylation via use of ECHO Technology (Measured using Phospho-Specific Primary and Fluorescent Secondary Antibodies).
This assay is designed to detect inhibitors of transiently expressed FGFR1 phosphorylation by antibody staining of fixed cells detected using ArrayScan technology.
Cos-1 cells were routinely passaged in DMEM (Gibco BRL, 41966) plus 3% foetal calf serum (FCS), 1% L-glutamine (Gibco BRL, 25030) to a confluence of 80%. To undertake the assay, Cos-1 cells were harvested at 90-95% confluence for cell transfection. For each 96-well plate, 24 μl Lipofectamine 2000 was added to 809 ul OptiMEM and incubated at room temperature for 5 minutes. For each 96 well plate, 20 ug 3′ FLAG tagged FGFR1/pcDNA3.1 (In-house clone15, MSD 4793) was diluted with OptiMEM to a total volume of 833 μl. Equal volumes of DNA and Lipofectamine 2000 were combined (DNA: Lipid=1:1.2 ratio) and incubated at room temperature for 20 minutes.
The harvested Cos-1 cells are counted using a coulter counter and diluted further with 1% FCS/DMEM to 2.5×10^5 cells/ml. For each 96-well, 8.33 ml cells were required. […]
Media was removed from the wells using vacuum aspiration; cells were fixed by adding 50 μl of 100% methanol to each well and incubated at room temperature for 20 minutes. […] The plates were read on an Arrayscan (Cellomics). […]

Each structure is given as a SMILES string. Where “and” joins values, the source holds several entries; their conditions need not be identical. Equal entries are not always repeated.

T2 sequence (P11362 22-822): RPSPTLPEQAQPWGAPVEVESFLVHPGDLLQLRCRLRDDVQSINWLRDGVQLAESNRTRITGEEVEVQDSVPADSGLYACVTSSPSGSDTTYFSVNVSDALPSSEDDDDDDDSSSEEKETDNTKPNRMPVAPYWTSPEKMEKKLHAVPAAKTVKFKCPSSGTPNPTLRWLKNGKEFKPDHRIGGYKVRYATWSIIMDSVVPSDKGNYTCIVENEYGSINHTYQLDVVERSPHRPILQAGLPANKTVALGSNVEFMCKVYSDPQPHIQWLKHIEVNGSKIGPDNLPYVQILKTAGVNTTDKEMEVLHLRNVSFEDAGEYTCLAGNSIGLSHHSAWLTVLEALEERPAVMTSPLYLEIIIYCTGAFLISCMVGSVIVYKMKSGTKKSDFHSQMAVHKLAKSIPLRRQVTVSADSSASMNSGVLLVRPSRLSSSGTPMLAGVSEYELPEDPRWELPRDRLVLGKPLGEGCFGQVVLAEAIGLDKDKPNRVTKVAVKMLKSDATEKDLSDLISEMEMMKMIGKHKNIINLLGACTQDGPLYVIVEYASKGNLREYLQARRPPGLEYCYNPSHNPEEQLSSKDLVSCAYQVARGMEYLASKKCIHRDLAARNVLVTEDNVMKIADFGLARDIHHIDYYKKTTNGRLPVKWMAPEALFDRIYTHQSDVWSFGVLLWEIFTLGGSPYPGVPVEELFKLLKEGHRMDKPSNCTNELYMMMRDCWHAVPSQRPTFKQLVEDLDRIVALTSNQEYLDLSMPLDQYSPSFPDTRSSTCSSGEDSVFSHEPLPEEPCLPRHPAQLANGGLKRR
T1 sequence (P11712 whole entry): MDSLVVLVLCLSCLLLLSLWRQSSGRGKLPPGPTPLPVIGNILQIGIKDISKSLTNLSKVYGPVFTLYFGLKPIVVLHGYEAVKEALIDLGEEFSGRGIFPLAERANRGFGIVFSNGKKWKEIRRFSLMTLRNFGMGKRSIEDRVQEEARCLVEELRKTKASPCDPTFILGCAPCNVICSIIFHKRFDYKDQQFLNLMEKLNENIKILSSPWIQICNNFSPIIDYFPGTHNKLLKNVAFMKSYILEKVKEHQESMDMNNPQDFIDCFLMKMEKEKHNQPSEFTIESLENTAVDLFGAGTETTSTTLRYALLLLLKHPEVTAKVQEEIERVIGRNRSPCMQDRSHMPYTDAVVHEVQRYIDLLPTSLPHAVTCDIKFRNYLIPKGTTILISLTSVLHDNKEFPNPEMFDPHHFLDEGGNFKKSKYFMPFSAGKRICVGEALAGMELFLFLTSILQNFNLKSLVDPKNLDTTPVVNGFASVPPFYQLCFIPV

The term IC50 denotes the concentration at which inhibition is half-maximal. In experiment [1], `COc1cc(CCc2cc(NC(=O)c3ccc(N4CCN(C)[C@@H](C)C4)cc3)[nH]n2)cc(OC)c1` [Example 1a, (S)—N-(3-(3,5-Dimethoxyphenethyl)-1H-pyrazol-5-yl)-4-(3,4-dimethylpiperazin-1-yl)benzamide] had an IC50 of 3760 nM. With `COc1cc(CCc2cc(NC(=O)c3ccc(N4CCN(C)[C@H](C)C4)cc3)[nH]n2)cc(OC)c1` [Example 1b, (R)—N-(3-(3,5-Dimethoxyphenethyl)-1H-pyrazol-5-yl)-4-(3,4-dimethylpiperazin-1-yl)benzamide], the IC50 at FGFR1 IIIc is < 10 nM and 1.1 nM and 2.2 nM and 4.8 nM; in experiment [1], 9120 nM.

(Values after patent US20090318468A1, “PYRAZOLE COMPOUNDS 436” (AstraZeneca AB, priority 2008, published 2009).)
